# Experimental data taken from ChEMBL document CHEMBL1201862, “PubChem BioAssay data set” (2004).
#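 Cells were grown in 96-well plates and exposed to each compound for 48 hours at five concentrations; endpoints were interpolated linearly between bracketing concentrations, or set to the highest concentration if not reached. The concentration for 50% growth inhibition is given as GI50.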 The source made the active and inactive calls. No stated cut-off is given here; in the data, active = GI50 up to about 1.1 µM and inactive = higher.
# How the values were obtained:
# Test in all cases: inhibition of tumour cell growth, NCI panel, 48 h
# 786-0 = test system: 786-0
# ACHN = test system: ACHN
# CCRF-CEM = test system: CCRF-CEM
# DU-145 = test system: DU-145
# HL-60 = test system: HL-60
# HOP-92 = test system: HOP-92
# HT-29 = test system: HT-29
# Hs-578T = test system: Hs-578T
# IGROV-1 = test system: IGROV-1
# KM12 = test system: KM12
# LOX IMVI = test system: LOX IMVI
# M14 = test system: M14
# MDA-MB-231 = test system: MDA-MB-231
# MDA-MB-435 = test system: MDA-MB-435
# Malme-3M = test system: Malme-3M
# NCI-H23 = test system: NCI-H23
# NCI-H460 = test system: NCI-H460
# OVCAR-8 = test system: OVCAR-8
# PC-3 = test system: PC-3
# SF-268 = test system: SF-268
# SF-539 = test system: SF-539
# SK-MEL-28 = test system: SK-MEL-28
# SK-MEL-2 = test system: SK-MEL-2
# SK-MEL-5 = test system: SK-MEL-5
# SK-OV-3 = test system: SK-OV-3
# SNB-19 = test system: SNB-19
# SW-620 = test system: SW-620
# T47D = test system: T47D
# TK-10 = test system: TK-10
# UACC-62 = test system: UACC-62
# A498 = test system: A498
# A549 = test system: A549
# COLO 205 = test system: COLO 205
# HCC 2998 = test system: HCC 2998
# HCT-116 = test system: HCT-116
# HCT-15 = test system: HCT-15
# HOP-62 = test system: HOP-62
# K562 = test system: K562
# MCF7 = test system: MCF7
# MDA-N = test system: MDA-N
# MOLT-4 = test system: MOLT-4
# NCI-H226 = test system: NCI-H226
# NCI/ADR-RES = test system: NCI/ADR-RES
# OVCAR-5 = test system: OVCAR-5
# RPMI-8226 = test system: RPMI-8226
# RXF 393 = test system: RXF 393
# SF-295 = test system: SF-295
# SN12C = test system: SN12C
# SNB-75 = test system: SNB-75
# SR = test system: SR
# U-251 = test system: U-251
# UO-31 = test system: UO-31
# CAKI-1 = test system: CAKI-1
# EKVX = test system: EKVX
# NCI-H522 = test system: NCI-H522
# OVCAR-3 = test system: OVCAR-3
# OVCAR-4 = test system: OVCAR-4
# UACC-257 = test system: UACC-257
compound,measurement,setting,value
COc1ccc2cc3[n+](cc2c1OC)CCc1cc2c(cc1-3)OCO2,GI50,786-0,45 µM (inactive)
same,GI50,ACHN,> 100 µM (inactive)
same,GI50,CCRF-CEM,18.4 µM (inactive)
same,GI50,DU-145,35.7 µM (inactive)
same,GI50,HL-60,18.2 µM (inactive)
same,GI50,HOP-92,24.5 µM (inactive)
same,GI50,HT-29,38.8 µM (inactive)
same,GI50,Hs-578T,11.3 µM (inactive)
same,GI50,IGROV-1,55.5 µM (inactive)
same,GI50,KM12,6.11 µM (inactive)
same,GI50,LOX IMVI,59.6 µM (inactive)
same,GI50,M14,39.8 µM (inactive)
same,GI50,MDA-MB-231,21.5 µM (inactive)
same,GI50,MDA-MB-435,12.6 µM (inactive)
same,GI50,Malme-3M,7.6 µM (inactive)
same,GI50,NCI-H23,7.93 µM (inactive)
same,GI50,NCI-H460,14.9 µM (inactive)
same,GI50,OVCAR-8,16.8 µM (inactive)
same,GI50,PC-3,20.3 µM (inactive)
same,GI50,SF-268,6.75 µM (inactive)
same,GI50,SF-539,52.2 µM (inactive)
same,GI50,SK-MEL-28,14.7 µM (inactive)
same,GI50,SK-MEL-2,23.8 µM (inactive)
same,GI50,SK-MEL-5,4.78 µM (inactive)
same,GI50,SK-OV-3,78 µM (inactive)
same,GI50,SNB-19,5.69 µM (inactive)
same,GI50,SW-620,55.3 µM (inactive)
same,GI50,T47D,5.26 µM (inactive)
same,GI50,TK-10,85.5 µM (inactive)
same,GI50,UACC-62,16 µM (inactive)
CO/C(=N\N=C\c1cc(OC)ccc1OC)c1ccncc1,GI50,786-0,> 10 µM (inactive)
same,GI50,A498,> 10 µM (inactive)
same,GI50,A549,> 10 µM (inactive)
same,GI50,ACHN,> 10 µM (inactive)
same,GI50,CCRF-CEM,> 10 µM (inactive)
same,GI50,COLO 205,> 10 µM (inactive)
same,GI50,HCC 2998,> 10 µM (inactive)
same,GI50,HCT-116,> 10 µM (inactive)
same,GI50,HCT-15,> 10 µM
same,GI50,HL-60,> 10 µM (inactive)
same,GI50,HOP-62,> 10 µM (inactive)
same,GI50,IGROV-1,> 10 µM (inactive)
same,GI50,K562,> 10 µM (inactive)
same,GI50,KM12,> 10 µM (inactive)
same,GI50,LOX IMVI,> 10 µM (inactive)
same,GI50,MCF7,> 10 µM (inactive)
same,GI50,MDA-N,> 10 µM (inactive)
same,GI50,MOLT-4,> 10 µM (inactive)
same,GI50,Malme-3M,> 10 µM (inactive)
same,GI50,NCI-H226,> 10 µM (inactive)
same,GI50,NCI-H23,> 10 µM (inactive)
same,GI50,NCI-H460,> 10 µM (inactive)
same,GI50,NCI/ADR-RES,> 10 µM (inactive)
same,GI50,OVCAR-5,> 10 µM (inactive)
same,GI50,OVCAR-8,> 10 µM (inactive)
same,GI50,PC-3,> 10 µM (inactive)
same,GI50,RPMI-8226,> 10 µM (inactive)
same,GI50,RXF 393,> 10 µM (inactive)
same,GI50,SF-268,> 10 µM (inactive)
same,GI50,SF-295,> 10 µM (inactive)
same,GI50,SF-539,> 10 µM (inactive)
same,GI50,SK-MEL-28,> 10 µM (inactive)
same,GI50,SK-MEL-2,> 10 µM (inactive)
same,GI50,SK-MEL-5,> 10 µM (inactive)
same,GI50,SK-OV-3,> 10 µM (inactive)
same,GI50,SN12C,> 10 µM (inactive)
same,GI50,SNB-19,> 10 µM (inactive)
same,GI50,SNB-75,3.68 µM (inactive)
same,GI50,SR,> 10 µM (inactive)
same,GI50,SW-620,> 10 µM (inactive)
same,GI50,T47D,> 10 µM (inactive)
same,GI50,TK-10,> 10 µM (inactive)
same,GI50,U-251,> 10 µM (inactive)
same,GI50,UO-31,> 10 µM (inactive)
COC(=O)NNC(=O)OC.COC(=O)Nc1ccccc1NC(=O)OC.COC(=O)Oc1nn(C(=O)OC)c(=O)c2ccccc12,GI50,786-0,> 100 µM (inactive)
same,GI50,A498,39.1 µM (inactive)
same,GI50,A549,> 100 µM (inactive)
same,GI50,ACHN,> 100 µM (inactive)
same,GI50,CAKI-1,> 100 µM (inactive)
same,GI50,CCRF-CEM,> 100 µM (inactive)
same,GI50,COLO 205,> 100 µM (inactive)
same,GI50,DU-145,> 100 µM (inactive)
same,GI50,EKVX,> 100 µM (inactive)
same,GI50,HCC 2998,> 100 µM (inactive)
same,GI50,HCT-116,> 100 µM (inactive)
same,GI50,HCT-15,> 100 µM
same,GI50,HL-60,> 100 µM (inactive)
same,GI50,HOP-62,> 100 µM (inactive)
same,GI50,HT-29,> 100 µM (inactive)
same,GI50,Hs-578T,> 100 µM (inactive)
same,GI50,IGROV-1,> 100 µM (inactive)
same,GI50,K562,> 100 µM (inactive)
same,GI50,KM12,> 100 µM (inactive)
same,GI50,LOX IMVI,> 100 µM (inactive)
same,GI50,M14,> 100 µM (inactive)
same,GI50,MCF7,> 100 µM (inactive)
same,GI50,MDA-MB-231,> 100 µM (inactive)
same,GI50,MDA-MB-435,> 100 µM (inactive)
same,GI50,MDA-N,> 100 µM (inactive)
same,GI50,MOLT-4,> 100 µM (inactive)
same,GI50,Malme-3M,> 100 µM (inactive)
same,GI50,NCI-H226,> 100 µM (inactive)
same,GI50,NCI-H23,> 100 µM (inactive)
same,GI50,NCI-H460,> 100 µM (inactive)
same,GI50,NCI-H522,> 100 µM (inactive)
same,GI50,NCI/ADR-RES,> 100 µM (inactive)
same,GI50,OVCAR-3,> 100 µM (inactive)
same,GI50,OVCAR-4,> 100 µM (inactive)
same,GI50,OVCAR-5,> 100 µM (inactive)
same,GI50,OVCAR-8,> 100 µM (inactive)
same,GI50,PC-3,> 100 µM (inactive)
same,GI50,RPMI-8226,> 100 µM (inactive)
same,GI50,RXF 393,> 100 µM (inactive)
same,GI50,SF-268,> 100 µM (inactive)
same,GI50,SF-295,> 100 µM (inactive)
same,GI50,SF-539,> 100 µM (inactive)
same,GI50,SK-MEL-28,> 100 µM (inactive)
same,GI50,SK-MEL-2,> 100 µM (inactive)
same,GI50,SK-MEL-5,> 100 µM (inactive)
same,GI50,SK-OV-3,> 100 µM (inactive)
same,GI50,SN12C,> 100 µM (inactive)
same,GI50,SNB-19,> 100 µM (inactive)
same,GI50,SNB-75,> 100 µM (inactive)
same,GI50,SR,> 100 µM (inactive)
same,GI50,SW-620,> 100 µM (inactive)
same,GI50,T47D,> 100 µM (inactive)
same,GI50,TK-10,> 100 µM (inactive)
same,GI50,U-251,> 100 µM (inactive)
same,GI50,UACC-257,> 100 µM (inactive)
same,GI50,UACC-62,> 100 µM (inactive)
same,GI50,UO-31,> 100 µM (inactive)
